Assay results: publication PMC6152131, “Pharmacokinetic Study of Biotransformation Products from an Anxiolytic Fraction of Tilia americana” (Molecules : A Journal of Synthetic Chemistry and Natural …, 2017)

How the values were obtained:
[1] = Stability of flavonoids and biotransformation products in mouse plasma under different handling conditions; assay type: in vitro ADME, mice; details: for Accuracy Bias 0 h / Observed Conc. 0 h / Accuracy Bias 8 h / Observed Conc. 8 h / Accuracy Bias 24 h / Observed Conc. 24 h: room temperature (25 °C); for Observed Conc. 0 h / Observed Conc. 8 h / Observed Conc. 24 h / Observed Conc. Autosampler (4 °C; 8 h) / Observed Conc. Long-term (−70 °C; 1 month): n = 6; for Accuracy Bias Autosampler (4 °C; 8 h) / Accuracy Bias Long-term (−70°C; 1 month) / Observed Conc. Autosampler (4 °C; 8 h) / Observed Conc. Long-term (−70 °C; 1 month): storage stability
Method: (§1) Plasma dried pulverized samples were extracted with methanol (HPLC grade, Merck). The extracts were filtered with Teflon membrane dimensions 0.45 μm by 13 mm (Millex®-LCR); 20 μL of each filtered sample was injected into the HPLC equipment. The measurements were performed in a (Waters corporation, Milford, CT, USA) 2695 HPLC with a diode array detector (Waters 2996) and processed with the Empower Pro 1.0 software. A Chromolith Performance® RP-18e 100 × 4.6 mm (Merck KGaA, Darmstadt, Germany) was used. The mobile phase consisted of a mixture of acetonitrile and water with the proportion 55:45 and a flow rate of 1 mL/min. The concentrations of the flavonoids and the biotransformation products were obtained by comparison with a pre-built calibration curve at λ = 220 nm.
[…] The investigation enclosed here expected manipulation conditions during all the sample storage and process periods, which included the stability data from the freeze/thaw, bench-top, autosampler, and long–term stability tests.
For all stability studies, fresh QC samples were evaluated by using a freshly prepared standard curve for the measurements. The concentrations obtained from all the stability studies were compared with the fresh QC samples, and the percentage concentration deviation was calculated. The analytes were considered stable in the mouse plasma when the concentration difference between the freshly prepared samples and the stability samples was less than 15%.

[2] = Plasma concentration after a single oral dose of the anxiolytic fraction (HPLC); assay type: in vivo, ICR mice; details: mouse, plasma, ICR mice, n = 10
Method: Eleven groups of ten animals each were randomly formed. All animals were orally administered with 200 mg/kg of the active fraction. Animals were anaesthetized with ether, and blood samples were obtained from the retroorbital sinus with a heparinized capillary, each group was examined at different times (0, 5, 10, 15, 30, 60, 120, 240, 480, 720, and 1440 min) after the active fraction was administered. […] Then the plasma samples were frozen and lyophilized. The dry plasma was subsequently used to extract and measure the concentration of the flavonoids and biotransformation products.
as §1
(§2) To evaluate the suitability of the assay for the pharmacokinetic studies, 200 mg/kg of the active fraction was orally administered to the animals. Ten animals were used in each group at different times (0, 5, 10, 15, 30, 60, 120, 240, 480, 720, and 1440 min). Pharmacokinetic calculations were performed using the observed data. All data was subsequently processed using the PKSolver add-in program for Microsoft Excel written in Visual Basic for Applications. All values obtained were expressed in mean ± standard deviation.

[3] = Pharmacokinetic analysis, two-compartment model (PKSolver); assay type: in vivo, ICR mice
Method: The data shown in Table 2 were applied to the program PKSolver. After a single oral administration of 200 mg/kg of the anxiolitic fraction of T. americana, the behavior of the concentration-time data allowed us to determine the main pharmacokinetic parameters under a two-compartment model (Table 3), and the same program provided the graphical behavior of the variables and the adjustment to the two-compartment model.
as §2
For the pharmacokinetic assay, the selection was made either from a one-compartment or a two-compartment model, with the use of both the Akaike information criterion (AIC) and the Schwarz criterion (SC). Using these two criteria, one can select which model is more suited to being adjusted, to the point where it reaches the lowest values of the AIC or SC criteria, which means that the chosen model is more parsimonious (less parameters required) and best fits the data (low error prediction).

[4] = high nominal conc. (7.00; 44.37; 4.50; 31.25 µg/mL)
[5] = low nominal conc. (1.75; 11.02; 1.12; 1.95 µg/mL)
[6] = medium nominal conc. (3.50; 22.18; 2.24; 7.81 µg/mL)
[7] = mouse, oral 200 mg/kg anxiolytic fraction, ICR mice plasma, two-compartment model
[8] = oral 200 mg/kg anxiolytic fraction, ICR mice plasma, two-compartment model
[9] = oral 200 mg/kg anxiolytic fraction, ICR mice plasma, two-compartment model, n = 10

For `O=C(O)Cc1ccc(O)c(O)c1` [DOPAC, 3,4-dihydroxyphenylacetic acid], the “Accuracy Bias 0 h” value ([1]; high nominal conc.) was 0.26%, the “Observed Conc. 0 h” value ([1]; high nominal conc. (rutin 7.00; quercetin glucoside, quercitrin, tiliroside 44.37; kaempferol 4.50; m-HPAA, p-HPAA, DOPAC 31.25 µg/mL)) was 31.61 ± 0.26 µg/mL and the “Accuracy Bias 0 h” value ([1]; low nominal conc.) was 0.02%. The “Observed Conc. 0 h” value ([1]; low nominal conc. (rutin 1.75; quercetin glucoside, quercitrin, tiliroside 11.02; kaempferol 1.12; m-HPAA, p-HPAA, DOPAC 1.95 µg/mL)) was 1.98 ± 0.020 µg/mL, the “Accuracy Bias 0 h” value ([1]; medium nominal conc.) was 0.03% and the “Observed Conc. 0 h” value ([1]; medium nominal conc. (rutin 3.50; quercetin glucoside, quercitrin, tiliroside 22.18; kaempferol 2.24; m-HPAA, p-HPAA, DOPAC 7.81 µg/mL)) was 7.85 ± 0.032 µg/mL. For the same compound, the “Accuracy Bias 8 h” value ([1]; high nominal conc.) was 0.25%, the “Observed Conc. 8 h” value [1, 4] was 31.64 ± 0.24 µg/mL and the “Accuracy Bias 8 h” value ([1]; low nominal conc.) was 0.03%. The “Observed Conc. 8 h” value [1, 5] was 1.92 ± 0.02 µg/mL, the “Accuracy Bias 8 h” value ([1]; medium nominal conc.) was 0.03% and the “Observed Conc. 8 h” value [1, 6] was 7.86 ± 0.03 µg/mL. For the same compound, the “Accuracy Bias 24 h” value ([1]; high nominal conc.) was 0.19%, the “Observed Conc. 24 h” value [1, 4] was 31.53 ± 0.19 µg/mL and the “Accuracy Bias 24 h” value ([1]; low nominal conc.) was 0.03%. For the same compound, the “Observed Conc. 24 h” value [1, 5] was 1.91 ± 0.03 µg/mL, the “Accuracy Bias 24 h” value ([1]; medium nominal conc.) was 0.02% and the “Observed Conc. 24 h” value [1, 6] was 7.78 ± 0.02 µg/mL. For the same compound, the “Accuracy Bias Autosampler (4 °C; 8 h)” value ([1]; high nominal conc.) was 2.23%, the “Accuracy Bias Long-term (−70°C; 1 month)” value ([1]; high nominal conc.) was 2.11% and the “Observed Conc. Autosampler (4 °C; 8 h)” value [1, 4] was 31.61 ± 0.19 µg/mL. For the same compound, the “Observed Conc. Long-term (−70 °C; 1 month)” value (“Observed Conc. Long-term” for short) [1, 4] was 31.53 ± 0.25 µg/mL, the “Accuracy Bias Autosampler (4 °C; 8 h)” value ([1]; low nominal conc.) was 0.88% and the “Accuracy Bias Long-term (−70°C; 1 month)” value ([1]; low nominal conc.) was 1.15%. The “Observed Conc. Autosampler (4 °C; 8 h)” value [1, 5] was 1.91 ± 0.03 µg/mL, the “Observed Conc. Long-term” value [1, 5] was 1.99 ± 0.03 µg/mL and the “Accuracy Bias Autosampler (4 °C; 8 h)” value ([1]; medium nominal conc.) was 0.38%. For the same compound, the “Accuracy Bias Long-term (−70°C; 1 month)” value ([1]; medium nominal conc.) was 0.58%, the “Observed Conc. Autosampler (4 °C; 8 h)” value [1, 6] was 7.78 ± 0.02 µg/mL and the “Observed Conc. Long-term” value [1, 6] was 7.85 ± 0.03 µg/mL. For the same compound, the concentration at 5 min ([2]; 5 min after single oral dose of 200 mg/kg of the anxiolytic fraction, ND = not detected) was 6600 ± 430 ng/mL, the concentration at 10 min ([2]; 10 min after single oral dose of 200 mg/kg of the anxiolytic fraction) was 6430 ± 350 ng/mL and the concentration at 15 min ([2]; 15 min after single oral dose of 200 mg/kg of the anxiolytic fraction) was 7730 ± 610 ng/mL. It also gave a concentration at 30 min ([2]; 30 min after single oral dose of 200 mg/kg of the anxiolytic fraction) of 7170 ± 520 ng/mL, a concentration at 60 min ([2]; 60 min after single oral dose of 200 mg/kg of the anxiolytic fraction) of 6880 ± 430 ng/mL and a concentration at 120 min ([2]; 120 min after single oral dose of 200 mg/kg of the anxiolytic fraction) of 6340 ± 410 ng/mL. The concentration at 240 min ([2]; 240 min after single oral dose of 200 mg/kg of the anxiolytic fraction) was 6260 ± 320 ng/mL, the concentration at 480 min ([2]; 480 min after single oral dose of 200 mg/kg of the anxiolytic fraction) was 6100 ± 340 ng/mL and the concentration at 720 min ([2]; 720 min after single oral dose of 200 mg/kg of the anxiolytic fraction) was 6010 ± 540 ng/mL. The concentration at 1440 min ([2]; 1440 min after single oral dose of 200 mg/kg of the anxiolytic fraction) was 5930 ± 490 ng/mL, the “CL/F, times lower than m-HPAA” value ([3]; after oral administration) was 30 times and the “CL/F, times lower than p-HPAA” value ([3]; after oral administration) was 20 times. For the same compound, the AUC(0-inf) [3, 7] was 3850 µg·h/mL, the Cmax [3, 7] was 7180 ng/mL and the Tmax [3, 7] was 0.215 h. The AUC(0-t) ([3]; mouse, oral 200 mg/kg anxiolytic fraction, ICR mice plasma, two-compartment model, read-out: AUC0→1440 (converted)) was 146 µg·h/mL, the MRT ([3]; mouse, oral 200 mg/kg anxiolytic fraction, ICR mice plasma, two-compartment model, read-out: MRT (mean residence time) (converted)) was 625 h and the k el ([3]; mouse, oral 200 mg/kg anxiolytic fraction, ICR mice plasma, two-compartment model, read-out: k10 (apparent first-order elimination rate constant from the central compartment) (converted)) was 5.3e-07 s⁻¹. The half-life ([3]; mouse, oral 200 mg/kg anxiolytic fraction, ICR mice plasma, two-compartment model, read-out: t1/2β) was 434 h, the “CL/F (apparent clearance)” value [3, 8] was 0.0008 (mg/Kg)/(μg/mL)/min and the “V/F (apparent volume of distribution)” value [3, 8] was 27.21 (mg/Kg)/(µg/mL). For the same compound, the “k12 (transfer rate constant central to peripheral compartment)” value [3, 8] was 0.002 min⁻¹, the “k21 (transfer rate constant peripheral to central compartment)” value [3, 8] was 0.0096 min⁻¹ and the ka (apparent first-order absorption rate constant) [3, 8] was 0.43 min⁻¹. For the same compound, the “t1/2ka (absorption half time)” value [3, 8] was 1.61 min, the t1/2α [3, 8] was 0.9992 h and the α [3, 8] was 0.01 min⁻¹. For the same compound, the β [3, 8] was 2.66e-05 min⁻¹, the “A (plasma concentration coefficient, central compartment)” value [3, 9] was 1.23 µg/mL and the “B (plasma concentration coefficient, peripheral compartment)” value [3, 9] was 6.16 µg/mL. The “index: relation between rate constants of k12 with respect to k21” value ([3]; two-compartment model) was 0.20.
